Consider six compounds from patent publication US11713344B2 (DONG-A ST CO., LTD., priority 2017, dated 2023).

A short description of assay [1]: Body weight loss efficacy by 5-day repeated injection vs Liraglutide and MEDI0382, obese mice (Exp. Ex. 10). Type of assay: in vivo, C57BL/6 mouse. The note with it: 30 nmol/kg s.c. once a day x 4. As to the method:
Male laboratory mice (C57BL/6 mouse) were given diet containing high fat. The mice with high-fat-diet-induced obesity were grouped by body weight before beginning the experiment. […] Body weight and food intake was measured once per day, at the same time each day.

Assay [2] addresses Human glucagon receptors (Homo sapiens, UniProt P47871). Briefly: Glucagon receptor activation assay (CRE-luciferase reporter, CHO-K1). For orientation: In a reporter assay the amount or activity of a reporter protein is the signal.
Experimental: Then, the resulting increased luciferase activity was evaluated as a measurement of the effect on each receptor activation.
After 3 hours of transfection, medium was exchanged to Alpha Minimal Essential Medium (α-MEM) comprising 10% fetal bovine serum (FBS). Next day, the medium was exchanged to α-MEM comprising the analog of the present invention and 0.1% bovine serum albumin (BSA). After 6 hours, dual luciferase assay reagent was added in the same amount as the medium in which the cells were submerged, and firefly luciferase and Renilla luciferase activities were continuously measured. Firefly luciferase activity values were corrected against Renilla luciferase activity to yield transfection efficiency.
The target of assay [3] is Human GLP-1 receptors (Homo sapiens, UniProt P43220). Briefly: GLP-1 receptor activation assay (CRE-luciferase reporter, CHO-K1).
Sequence of Human GLP-1 receptors (P43220 24-463): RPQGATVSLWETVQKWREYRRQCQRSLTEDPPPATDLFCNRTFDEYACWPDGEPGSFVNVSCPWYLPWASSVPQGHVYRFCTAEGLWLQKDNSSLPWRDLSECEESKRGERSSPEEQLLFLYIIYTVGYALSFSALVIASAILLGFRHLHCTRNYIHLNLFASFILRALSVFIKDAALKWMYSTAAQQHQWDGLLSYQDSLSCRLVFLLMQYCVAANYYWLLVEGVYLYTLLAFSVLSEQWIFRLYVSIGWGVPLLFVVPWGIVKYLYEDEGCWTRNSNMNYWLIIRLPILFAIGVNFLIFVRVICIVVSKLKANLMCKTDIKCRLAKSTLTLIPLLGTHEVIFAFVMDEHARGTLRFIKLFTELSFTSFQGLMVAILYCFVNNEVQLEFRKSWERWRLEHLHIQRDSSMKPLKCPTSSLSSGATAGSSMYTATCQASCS

Sequence of Human glucagon receptors (P47871 26-477): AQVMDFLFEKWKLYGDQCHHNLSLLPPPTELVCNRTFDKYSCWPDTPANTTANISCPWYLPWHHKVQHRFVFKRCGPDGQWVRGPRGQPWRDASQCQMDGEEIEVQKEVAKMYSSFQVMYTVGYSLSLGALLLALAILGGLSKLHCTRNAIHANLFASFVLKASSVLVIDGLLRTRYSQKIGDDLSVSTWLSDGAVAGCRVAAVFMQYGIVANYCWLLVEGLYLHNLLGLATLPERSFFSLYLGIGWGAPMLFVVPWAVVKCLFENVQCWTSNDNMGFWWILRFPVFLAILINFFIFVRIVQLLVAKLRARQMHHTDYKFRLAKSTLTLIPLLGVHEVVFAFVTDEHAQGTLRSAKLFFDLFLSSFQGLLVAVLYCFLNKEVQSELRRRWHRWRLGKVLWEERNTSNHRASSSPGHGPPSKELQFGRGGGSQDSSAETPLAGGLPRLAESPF

Usually EC50 stands for the midpoint of the concentration-response curve. Higher therefore signals lower potency in that assay. `CCCCCCCCCCCCCCCC(=O)N[C@@H](CCC(=O)NCCCC[C@H](NC(=O)[C@H](CC(=O)O)NC(=O)[C@H](CO)NC(=O)[C@@H](NC(=O)[C@H](Cc1ccccc1)NC(=O)[C@@H](NC(=O)CNC(=O)[C@H](CCC(N)=O)NC(=O)[C@H](CO)NC(=O)[C@@H](N)Cc1c[nH]cn1)[C@@H](C)O)[C@@H](C)O)C(=O)N[C@@H](CO)C(=O)N[C@@H](CCC(=O)O)C(=O)N[C@@H](Cc1ccc(O)cc1)C(=O)N[C@@H](CC(C)C)C(=O)N[C@@H](CC(=O)O)C(=O)N[C@@H](CO)C(=O)N[C@@H](CCC(=O)O)C(=O)N[C@@H](CCCNC(=N)N)C(=O)N[C@@H](C)C(=O)N[C@@H](CCCNC(=N)N)C(=O)N[C@@H](CC(=O)O)C(=O)N[C@@H](Cc1ccccc1)C(=O)N[C@H](C(=O)N[C@@H](C)C(=O)N[C@@H](Cc1c[nH]c2ccccc12)C(=O)N[C@@H](CC(C)C)C(=O)N[C@@H](CCC(=O)O)C(=O)N[C@@H](C)C(=O)NCC(=O)NCC(=O)O)C(C)C)C(=O)O` [MEDI0382, reference compound]: the “body weight loss from baseline” value in assay [1] turned out to be 8.0%. Besides, the EC50 in assay [2] is 0.01 to 0.1 nM; in assay [3], below 0.01 nM.

With `CCCCCCCCCCCCCCCCCC(=O)N[C@@H](CCC(=O)NCCOCCOCC(=O)NCCOCCOCC(=O)NCCCC[C@H](NC(=O)[C@H](CC(=O)O)NC(=O)[C@H](CO)NC(=O)[C@@H](NC(=O)[C@H](Cc1ccccc1)NC(=O)[C@@H](NC(=O)CNC(=O)[C@H](CCC(N)=O)NC(=O)C(C)(C)NC(=O)[C@@H](N)Cc1c[nH]cn1)[C@@H](C)O)[C@@H](C)O)C(=O)N[C@@H](CO)C(=O)N[C@@H](CCCCN)C(=O)N[C@@H](Cc1ccc(O)cc1)C(=O)N[C@@H](CC(C)C)C(=O)N[C@@H](CC(=O)O)C(=O)N[C@H]1CCC(=O)NC2CCC(CC2)C(=O)NCCCC[C@@H](C(=O)N[C@@H](CC(=O)O)C(=O)N[C@@H](Cc2ccccc2)C(=O)N[C@H](C(=O)N[C@@H](CCC(N)=O)C(=O)N[C@@H](Cc2c[nH]c3ccccc23)C(=O)N[C@@H](CC(C)C)C(=O)N[C@@H](CCSC)C(=O)N[C@@H](CC(N)=O)C(=O)N[C@H](C(=O)N[C@@H](CCCCN)C(=O)O)[C@@H](C)O)C(C)C)NC(=O)[C@H](C)NC(=O)[C@H](CCCNC(=N)N)NC(=O)[C@H](CCCNC(=N)N)NC1=O)C(=O)O` [Compound 33, H-HAibQGTFTSDZSKYLDERRAKDFVQWLMNTK-OH], the concentration giving a half-maximal response (EC50) in assay [2] and in assay [3] was below 0.01 nM in each case.

Regarding `CSCC[C@H](NC(=O)[C@H](CC(C)C)NC(=O)[C@H](Cc1c[nH]c2ccccc12)NC(=O)[C@H](CCC(N)=O)NC(=O)[C@@H](NC(=O)[C@H](Cc1ccccc1)NC(=O)[C@H](CC(=O)O)NC(=O)[C@H](CCC(N)=O)NC(=O)[C@H](C)NC(=O)[C@H](CCCNC(=N)N)NC(=O)[C@H](CCCNC(=N)N)NC(=O)C(C)(C)NC(=O)[C@H](CC(=O)O)NC(=O)[C@H](CC(C)C)NC(=O)[C@H](Cc1ccc(O)cc1)NC(=O)[C@H](CCCCN)NC(=O)[C@H](CO)NC(=O)[C@H](CCCCNC(=O)COCCOCCNC(=O)COCCOCCNC(=O)CC[C@H](NC(=O)CCCCCCCCCCCCCCCCC(=O)O)C(=O)O)NC(=O)[C@H](CC(=O)O)NC(=O)[C@H](CO)NC(=O)[C@@H](NC(=O)[C@H](Cc1ccccc1)NC(=O)[C@@H](NC(=O)CNC(=O)[C@H](CCC(N)=O)NC(=O)C(C)(C)NC(=O)[C@@H](N)Cc1c[nH]cn1)[C@@H](C)O)[C@@H](C)O)C(C)C)C(=O)N[C@@H](CC(N)=O)C(=O)N[C@H](C(=O)N[C@@H](CCCCN)C(=O)O)[C@@H](C)O` [Compound 43], the EC50 in assay [2] and in assay [3] was above 1 nM each time.

Take `CSCC[C@H](NC(=O)[C@H](CC(C)C)NC(=O)[C@H](Cc1c[nH]c2ccccc12)NC(=O)[C@H](CCC(N)=O)NC(=O)[C@@H](NC(=O)[C@H](Cc1ccccc1)NC(=O)[C@H](CC(=O)O)NC(=O)[C@H](CCC(N)=O)NC(=O)[C@H](C)NC(=O)[C@H](CCCNC(=N)N)NC(=O)[C@H](CCCNC(=N)N)NC(=O)C(C)(C)NC(=O)[C@H](CC(=O)O)NC(=O)[C@H](CC(C)C)NC(=O)[C@H](Cc1ccc(O)cc1)NC(=O)[C@H](CCCCN)NC(=O)[C@H](CO)NC(=O)[C@H](CCCCNC(=O)COCCOCCNC(=O)COCCOCCNC(=O)CC[C@H](NC(=O)CCCCCCCCCCCCCCC(=O)N[C@H](C(=O)O)C(C)C)C(=O)O)NC(=O)[C@H](CC(=O)O)NC(=O)[C@H](CO)NC(=O)[C@@H](NC(=O)[C@H](Cc1ccccc1)NC(=O)[C@@H](NC(=O)CNC(=O)[C@H](CCC(N)=O)NC(=O)C(C)(C)NC(=O)[C@@H](N)Cc1c[nH]cn1)[C@@H](C)O)[C@@H](C)O)C(C)C)C(=O)N[C@@H](CC(N)=O)C(=O)N[C@H](C(=O)N[C@@H](CCCCN)C(=O)O)[C@@H](C)O` [Compound 46]: the EC50 in assay [2] and in assay [3] was 0.1 to 1 nM throughout.

Turning to `CCCCCCCCCCCCCCCCCC(=O)N[C@@H](CCC(=O)NCCOCCOCC(=O)NCCOCCOCC(=O)NCCOCCOCC(=O)NCCCC[C@H](NC(=O)[C@H](CC(=O)O)NC(=O)[C@H](CO)NC(=O)[C@@H](NC(=O)[C@H](Cc1ccccc1)NC(=O)[C@@H](NC(=O)CNC(=O)[C@H](CCC(N)=O)NC(=O)C(C)(C)NC(=O)[C@@H](N)Cc1c[nH]cn1)[C@@H](C)O)[C@@H](C)O)C(=O)N[C@@H](CO)C(=O)N[C@@H](CCCCN)C(=O)N[C@@H](Cc1ccc(O)cc1)C(=O)N[C@@H](CC(C)C)C(=O)N[C@@H](CC(=O)O)C(=O)NC(C)(C)C(=O)N[C@@H](CCCNC(=N)N)C(=O)N[C@@H](CCCNC(=N)N)C(=O)N[C@@H](C)C(=O)N[C@@H](CCC(N)=O)C(=O)N[C@@H](CC(=O)O)C(=O)N[C@@H](Cc1ccccc1)C(=O)N[C@H](C(=O)N[C@@H](CCC(N)=O)C(=O)N[C@@H](Cc1c[nH]c2ccccc12)C(=O)N[C@@H](CC(C)C)C(=O)N[C@@H](CCSC)C(=O)N[C@@H](CC(N)=O)C(=O)N[C@H](C(=O)N[C@@H](CCCCN)C(=O)O)[C@@H](C)O)C(C)C)C(=O)O` [Compound 10], the EC50 in assay [2] and in assay [3] was below 0.01 nM each time.

Consider `CCCCCCCCCCCCCCCCCC(=O)N[C@@H](CCC(=O)NCCOCCOCC(=O)NCCOCCOCC(=O)NCCCC[C@H](NC(=O)[C@H](CC(=O)O)NC(=O)[C@H](CO)NC(=O)[C@@H](NC(=O)[C@H](Cc1ccccc1)NC(=O)[C@@H](NC(=O)CNC(=O)[C@H](CCC(N)=O)NC(=O)C(C)(C)NC(=O)[C@@H](N)Cc1c[nH]cn1)[C@@H](C)O)[C@@H](C)O)C(=O)N[C@@H](CO)C(=O)N[C@@H](CCCCN)C(=O)N[C@@H](Cc1ccc(O)cc1)C(=O)N[C@@H](CC(C)C)C(=O)N[C@@H](CC(=O)O)C(=O)NC(C)(C)C(=O)N[C@@H](CCCNC(=N)N)C(=O)N[C@@H](CCCNC(=N)N)C(=O)N[C@@H](C)C(=O)N[C@@H](CCC(N)=O)C(=O)N[C@@H](CC(=O)O)C(=O)N[C@@H](Cc1ccccc1)C(=O)N[C@H](C(=O)N[C@@H](CCC(N)=O)C(=O)N[C@@H](Cc1c[nH]c2ccccc12)C(=O)N[C@@H](CC(C)C)C(=O)N[C@@H](CCSC)C(=O)N[C@@H](CC(N)=O)C(=O)N[C@H](C(=O)N[C@@H](CCCCN)C(=O)N[C@@H](CCCNC(=N)N)C(=O)N[C@@H](CC(N)=O)C(=O)N[C@@H](CCCNC(=N)N)C(=O)N[C@@H](CC(N)=O)C(=O)N[C@@H](CC(N)=O)C(=O)N[C@H](C(=O)N[C@@H](C)C(=O)O)[C@@H](C)CC)[C@@H](C)O)C(C)C)C(=O)O` [Compound 7], for which the half-maximal effective concentration (EC50) in assay [2] and in assay [3] was below 0.01 nM in each case.
